Measurements reported in patent publication US20220274979A1 (Bayer Pharma Aktiengesellschaft, priority 2018, published 2022).

Experiments:
[1] = target: T1, hK-RasG12C - hSOS1 interaction (Homo sapiens, UniProt Q07889); test: Biochemical Assay 1: hK-RasG12C interaction assay with hSOS1 (HTRF); assay type: binding; conditions: for IC50: values expressed as IC50; for inhibition at 20 µM: read-out: Assay 1 (hKRAS, hSOS Interaction) activity (expressed as IC50, or as % inhibition at 20 μM)
T1 construct: hSOS1 (amino acid 564-1049); made in house; host or cells: E. coli BL21 (DE3)
T1 sequence (Q07889 with tags, fused parts or gaps): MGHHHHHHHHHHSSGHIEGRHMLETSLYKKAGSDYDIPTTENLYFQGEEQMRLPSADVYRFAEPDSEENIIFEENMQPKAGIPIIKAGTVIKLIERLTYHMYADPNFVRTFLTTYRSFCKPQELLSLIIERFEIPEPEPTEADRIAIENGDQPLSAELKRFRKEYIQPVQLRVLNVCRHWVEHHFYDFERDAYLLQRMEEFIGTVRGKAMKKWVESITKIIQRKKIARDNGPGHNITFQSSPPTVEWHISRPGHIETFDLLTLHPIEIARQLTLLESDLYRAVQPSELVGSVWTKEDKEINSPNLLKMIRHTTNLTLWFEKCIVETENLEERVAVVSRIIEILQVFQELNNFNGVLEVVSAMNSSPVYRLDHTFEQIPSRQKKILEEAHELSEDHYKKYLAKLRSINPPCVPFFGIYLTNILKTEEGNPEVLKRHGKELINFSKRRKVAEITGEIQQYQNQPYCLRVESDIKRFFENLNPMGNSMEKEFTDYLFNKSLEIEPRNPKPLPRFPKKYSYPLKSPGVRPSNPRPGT
Protocol: Biochemical Assay 1: hK-RasG12C Interaction Assay with hSOS1
This assay quantifies the equilibrium interaction of human SOS1 (hSOS1) with human K-Ras^G12C (hK-RasG12C). Detection of the interaction is achieved by measuring homogenous time-resolved fluorescence resonance energy transfer (HTRF) from antiGST-Europium (FRET donor) bound to GST-K-RasG12C to anti-6His-XL665 bound to His-tagged hSOS1 (FRET-acceptor).
The assay buffer contained 5 mM HEPES pH 7.4 (Applichem), 150 mM NaCl (Sigma), 10 mM EDTA (Promega), 1 mM DTT (Thermofisher), 0.05% BSA Fraction V, pH 7.0, (ICN Biomedicals), 0.0025% (v/v) Igepal (Sigma) and 100 mM KF (FLUKA).
Concentrations of protein batches used were optimized to be within the linear range of the HTRF signal. A Ras working solution was prepared in assay buffer containing typically 10 nM GST-hK-RasG12C and 2 nM antiGST-Eu(K) (Cisbio, France). A SOS1 working solution was prepared in assay buffer containing typically 20 nM His-hSOS1 and 10 nM anti-6His-XL665 (Cisbio, France). An inhibitor control solution was prepared in assay buffer containing 10 nM anti-6His-XL665 without hSOS1.
(§1) Fifty nl of a 100-fold concentrated solution of the test compound in DMSO were transferred into a black microtiter test plate (384 or 1536, Greiner Bio-One, Germany) For this, either a Hummingbird liquid handler (Digilab, Mass., USA) or an Echo acoustic system (Labcyte, Calif., USA) was used.
(§2) All steps of the assay were performed at 20° C. A volume of 2.5 μl of the Ras working solution was added to all wells of the test plate using a Multidrop dispenser (Thermo Labsystems). After 2 mM preincubation, 2.5 μl of the SOS1 working solution were added to all wells except for those wells at the side of the test plate that were subsequently filled with 2.5 μl of the inhibitor control solution. After 60 mM incubation the fluorescence was measured with a Pherastar (BMG, Germany) using the HTRF module (excitation 337 nm, emission 1:620 nm, emission 2:665 nm).
(§3) IC50 values were calculated by 4-Parameter fitting using a commercial software package (Genedata Screener, Switzerland).

[2] = target: T2, hSOS1 (hSOS1-mediated nucleotide exchange of hK-RasG12C) (Homo sapiens, UniProt Q07889); test: Biochemical Assay 2: hK-RasG12C activation assay by hSOS1 at high GTP concentration (HTRF nucleotide exchange); conditions: high GTP (50 μM GTP)
T2 construct: hSOS1 (amino acid 564-1049); made in house; host or cells: E. coli BL21 (DE3)
T2 sequence (Q07889 with tags, fused parts or gaps): T1 sequence (Q07889 with tags, fused parts or gaps)
Source text: Biochemical Assay 2: hK-RasG12C Activation Assay by hSOS1 at High GTP Concentration
This assay quantifies human SOS1-mediated nucleotide exchange of human K-Ras^G12C (hK-RasG12C) preloaded with a fluorescent […] and in presence of an excess of free GTP. Loaded hK-RasG12C generates a high HTRF-signal by energy transfer from antiGST-Terbium (FRET donor) bound to hK-Ras to the loaded fluorescent GDP analog (FRET-acceptor). hSOS1 activity exchanges the fluorescent GDP for non-fluorescent GTP and therefore leads to a reduction of the HTRF signal.
The fluorescent GDP-analog EDA-GDP-Dy647P1 (2′/3′-O-(2-Aminoethyl-carbamoyl)-guanosine-5′-diphosphate labelled with Dy647P1 (Dyomics GmbH, Germany)) was synthesized by Jena Biosciences GmbH (Germany) and supplied as a 1 mM aqueous solution.
Concentrations of protein batches used were optimized to be within the linear range of the HTRF signal.
Addition of 20 μl 1 M MgCl2 (Sigma) to final 40 mM and store on ice. Purification into buffer (10 mM HEPES pH 7.4 (Applichem), 150 mM NaCl (Sigma), 5 mM MgCl2 (Sigma)) by use of a PD-Minitrap desalting column (GE Healthcare). Concentration of 1 ml purified hK-Ras-GDP-Dy647 is approx. 4-5 μM.
The assay buffer contained 10 mM HEPES pH 7.4 (Applichem), 150 mM NaCl (Sigma), 5 mM MgCl2 (Sigma), 1 mM DTT (Thermofisher), 0.05% BSA Fraction V, pH 7.0, (ICN Biomedicals), 0.0025% (v/v) Igepal (Sigma).
A Ras working solution was prepared in assay buffer containing typically 80 nM loaded GST-hK-RasG12C-EDA-GDP-Dy647P1 and 2 nM antiGST-Tb (Cisbio, France).
Alternatively, the inhibitor control solution was prepared by supplementing the hSOS1 working solution with 20 μM of 6,7-dimethoxy-N-[(1R)-1-(1-naphthyl)ethyl]quinazolin-4-amine which was used to calibrate the assay.
as §1
as §2, with “min.” for “mM”, “hSOS1” for “SOS1”, “20 min.” for “60 mM”
as §3

Compound	IC50 [1]	IC50 [2]	inhibition at 20 µM [1]
COCCOc1ncc2nc(C)nc(N[C@H](C)c3cccc(Br)c3)c2n1 [Example 26, N-[(1R)-1-(3-bromophenyl)ethyl]-6-(2-methoxyethoxy)-2-methylpyrimido[5,4-d]pyrimidin-4-amine]	2750 nM	3040 nM	–
Cc1nc(N[C@H](C)c2cccc(Br)c2)c2nc(N3CCOCC3)ccc2n1 [Example 27, N-[(1R)-1-(3-bromophenyl)ethyl]-2-methyl-6-(morpholin-4-yl)pyrido[3,2-d]pyrimidin-4-amine]	2580 nM	1840 nM	–
COc1ccc2nc(C)nc(N[C@H](C)c3cccc(Br)c3)c2n1 [Example 28, N-[(1R)-1-(3-bromophenyl)ethyl]-6-methoxy-2-methylpyrido[3,2-d]pyrimidin-4-amine]	–	> 20000 nM	49.8%
CCOc1ccc2nc(C)nc(N[C@H](C)c3cccc(Br)c3)c2n1 [Example 29, N-[(1R)-1-(3-bromophenyl)ethyl]-6-ethoxy-2-methylpyrido[3,2-d]pyrimidin-4-amine]	17400 nM	> 20000 nM	–
COCCOc1ccc2nc(C)nc(N[C@H](C)c3cccc(Br)c3)c2n1 [Example 30, N-[(1R)-1-(3-bromophenyl)ethyl]-6-(2-methoxyethoxy)-2-methylpyrido[3,2-d]pyrimidin-4-amine]	5430 nM	5740 nM	–
Cc1nc(N[C@H](C)c2cccc(Br)c2)c2nc(N(C)C)ccc2n1 [Example 31]	17700 nM	≥ 40000 nM	–
Cc1nc(N[C@H](C)c2cccc(Br)c2)c2nc(Oc3ccccc3)ccc2n1 [Example 32, N-[(1R)-1-(3-bromophenyl)ethyl]-2-methyl-6-phenoxypyrido[3,2-d]pyrimidin-4-amine]	–	> 20000 nM	22.4%
Cc1nc(N[C@H](C)c2cccc(Br)c2)c2nc(OCc3ccccc3)ccc2n1 [Example 33, 6-(benzyloxy)-N-[(1R)-1-(3-bromophenyl)ethyl]-2-methylpyrido[3,2-d]pyrimidin-4-amine]	–	> 20000 nM	29.3%
Cc1nc(N[C@H](C)c2cccc(Br)c2)c2cc(F)ncc2n1 [Example 34, N-[(1R)-1-(3-bromophenyl)ethyl]-6-fluoro-2-methylpyrido[3,4-d]pyrimidin-4-amine]	–	> 20000 nM	36.7%
Cc1nc(NC(C)c2ccc(Br)s2)c2cc(F)ncc2n1 (centres unmarked) [Example 35]	–	> 20000 nM	23.5%
CNCc1ccccc1-c1ccc(C(C)Nc2nc(C)nc3cnc(F)cc23)s1 (centres unmarked) [Example 36, 6-fluoro-2-methyl-N-[1-(5-{2-[(methylamino)methyl]phenyl}thiophen-2-yl)ethyl]pyrido[3,4-d]pyrimidin-4-amine]	9030 nM	19000 nM	–
CNCc1ccccc1-c1ccc(C(C)Nc2nc(C)nc3cnc(Oc4ccc(N5CCCC5=O)cc4)cc23)s1 (centres unmarked) [Example 38, 1-{4-[(2-methyl-4-{[1-(5-{2-[(methylamino)methyl]phenyl}thiophen-2-yl)ethyl]amino}pyrido[3,4-d]pyrimidin-6-yl)oxy]phenyl}pyrrolidin-2-one]	218 nM	601 nM	–
Cc1nc(N[C@H](C)c2cccc(Br)c2)c2cc(NCCN3CCOCC3)ncc2n1 [Example 39]	876 nM	1360 nM	–
Cc1nc(N[C@H](C)c2cccc(Br)c2)c2cc(Oc3cccc(O)c3)ncc2n1 [Example 40, 3-[(4-{[(1R)-1-(3-bromophenyl)ethyl]amino}-2-methylpyrido[3,4-d]pyrimidin-6-yl)oxy]phenol]	13200 nM	8660 nM	–
Cc1nc(N[C@H](C)c2cccc(Br)c2)c2cc(Oc3cccc(C4=NCCN4C)c3)ncc2n1 [Example 41, N-[(1R)-1-(3-bromophenyl)ethyl]-2-methyl-6-[3-(1-methyl-4,5-dihydro-1H-imidazol-2-yl)phenoxy]pyrido[3,4-d]pyrimidin-4-amine]	1600 nM	2310 nM	–
Cc1nc(N[C@H](C)c2cccc(Br)c2)c2cc(N3CCN(Cc4cccnc4)CC3)ncc2n1 [Example 43, N-[(1R)-1-(3-bromophenyl)ethyl]-2-methyl-6-[4-(pyridin-3-ylmethyl)piperazin-1-yl]pyrido[3,4-d]pyrimidin-4-amine]	296 nM	380 nM	–
CC(=O)NCCNc1cc2c(N[C@H](C)c3cccc(Br)c3)nc(C)nc2cn1 [Example 44, N-{2-[(4-{[(1R)-1-(3-bromophenyl)ethyl]amino}-2-methylpyrido[3,4-d]pyrimidin-6-yl)amino]ethyl}acetamide]	985 nM	1060 nM	–
Cc1nc(N[C@H](C)c2cccc(Br)c2)c2cc(N3CCNC(=O)C3)ncc2n1 [Example 45]	91.8 nM	506 nM	–
Cc1nc(N[C@H](C)c2cccc(Br)c2)c2cc(NC3CCOCC3)ncc2n1 [Example 46]	1290 nM	4220 nM	–
Cc1nc(NC(C)c2ccc(-c3ccccc3CN(C)C)s2)c2cc(NCCN3CCOCC3)ncc2n1 (centres unmarked) [Example 48]	38.8 nM	141 nM	–
Cc1nc(N[C@H](C)c2cccc(Br)c2)c2cc(NCCn3cccn3)ncc2n1 [Example 49, N4-[(1R)-1-(3-bromophenl)pethyl]-2-methyl-N6-[2-(1H-pyrazol-1-yl)ethyl]pyrido[3,4-d]pyrimidine-4,6-diamine]	1210 nM	3630 nM	–
CC(=O)NCCNc1cc2c(NC(C)c3ccc(-c4ccccc4CN(C)C)s3)nc(C)nc2cn1 (centres unmarked) [Example 51, N-{2-[(4-{[1-(5-{2-[(dimethylamino)methyl]phenyl}thiophen-2-yl)ethyl]amino}-2-methylpyrido[3,4-d]pyrimidin-6-yl)amino]ethyl}acetamide]	32.9 nM	77.8 nM	–
